# Results: article PMC5228125 (Scientific Reports, 2017)
# Target: SARS-CoV PLpro (Severe acute respiratory syndrome coronavirus, UniProt P0C6X7)
# Assay type: cell-based
structure (smiles),measurement,value
CC(=O)Nc1cccc(CNC(=O)C2CCN([C@H](C)c3cccc4ccccc34)CC2)c1 [compound 3e],Effect on SARS-CoV PLpro activity in the biosensor assay,blocks
